Data reported in US9388172B2, “Substituted carbamate compounds” (Hoffmann-La Roche Inc., priority 2012, dated 2016).
Counter-ions that a name gives are not always drawn.

Target: T1, hTRPA1 (Homo sapiens, UniProt O75762)
T1 construct: host or cells: CHO-K1 Tet-On HOMSA TRPA1 Clone 20 (Chinese Hamster Ovary cells, inducible expression)
Assay: ChanTest hTRPA1-CHO calcium flux dose response assay (FLIPR, cinnamaldehyde agonist)
Format: cell-based
Settings: CHO-K1 Tet-On hTRPA1 cells, 100 uM cinnamaldehyde agonist, 30 min compound preincubation
Experimental: IC50 Determination of Exemplified Compounds Dose Response Assay: ChanTest hTRPA1-CHO Stably Transfected Cell Line
CHO-K1 Tet-On HOMSA TRPA1 Clone 20
0.40 mg/ml Zeocin • The cell line doubling rate was ˜15 hours. […] Experiments were run at 24 hours post induction.
Plating Conditions CHOK1/TRPA1 Cells: • Harvested cells with 0.025% trypsin/EDTA. • Resuspended cells in growth media without selection antibiotics. • Measured cell density and diluted to 2.4×10^5 cells/ml in media containing 1 ug/ml Doxycycline Plate 25 ul/well into 384 well black/clear tissue culture-treated plates. • Incubated overnight at 37° C.
• Replacement Buffer: Hank's Balanced Salt Solution, 20 mM HEPES along with 0.005% BSA and 2× Probenecid • Dye Loading Buffer: Cal-3 NW Calcium dye was prepared by dissolving the contents of one vial with 500 ml Hank's Balanced Salt Solution containing 20 mM HEPES.
Control Compounds for CHOK1/TRPA1 Cells: • AP-18, stock 10 mM, prepare 3.5× compound dilution in a Compound Buffer (HBSS/20 mM HEPES/0.005% BSA)−final concentration 10 uM.
Preparation of Cinnamaldehyde (Agonist Addition): • FW=132.16 • Specific gravity=1.046 gm/cc • 1.32 gm/1.046 gm/cc=1.26 ml of stock • Add 1.74 ml DMSO=3.3 M stock • Working solution 4.5× (final 100 uM in Compound Buffer: HBSS/20 mM HEPES/0.005% BSA)
Compounds dilutions were prepared from 5 or 10 mM stock (100% DMSO): • Adjustments of volumes and concentrations were made at time of titration to reflect desired final assay concentrations. • Compounds were tested at either 20 μM three folds dilution 11 steps out or 30 μM two folds dilution 11 steps out. • 3 μl of diluted compound were transferred into Weidmann 384-well plate in duplicates side-by-side. • Compound plates were resuspended with 100 ul of HBSS/20 mM HEPES/0.005% BSA buffer (Compound Buffer): • column 1A-H: buffer/DMSO (bk) • column 2A-H: AP-18 (control antagonist for CHOK1 TRPA1 cells) • column 1I-P: ATP (control for CHOK1 teton cells) • column 2I-P: 2APB (control antagonist for CHOK1/TRPM8 cells).
Growth media was removed from the cell plates (20 ul) and 20 ul of the Replacement Buffer was added followed by addition of 25 ul of diluted dye. All three steps were performed using a Plate Washer BioTek 407. The plates were then incubated for 30′ at RT.
After incubation, both the cell and compound plates were brought to the FLIPR and 20 ul of the diluted compounds/antagonist/bk were transferred to the cell plates by the FLIPR. Plates were then incubated for 30′ at room temperature. After 30′ incubation, plates were returned to the FLIPR and 20 ul of 4.5× Cinnamaldehyde was added to the cell plates. During the compound addition as well as agonist addition, fluorescence readings were taken simultaneously from all 384 wells of the cell plate every 1.5 seconds. Five readings were taken to establish a stable baseline, then 20 ul of sample was rapidly (30 ul/sec) and simultaneously added to each well of the cell plate. The fluorescence was continuously monitored before, during and after sample/agonist addition for a total elapsed time of 100 seconds (compound addition) and 120 seconds (agonist addition). Responses (increase in peak fluorescence) in each well following agonist addition was determined. The initial fluorescence reading from each well, prior to ligand stimulation, was used a zero baseline value for the data from that well.

T1 sequence (O75762 whole entry): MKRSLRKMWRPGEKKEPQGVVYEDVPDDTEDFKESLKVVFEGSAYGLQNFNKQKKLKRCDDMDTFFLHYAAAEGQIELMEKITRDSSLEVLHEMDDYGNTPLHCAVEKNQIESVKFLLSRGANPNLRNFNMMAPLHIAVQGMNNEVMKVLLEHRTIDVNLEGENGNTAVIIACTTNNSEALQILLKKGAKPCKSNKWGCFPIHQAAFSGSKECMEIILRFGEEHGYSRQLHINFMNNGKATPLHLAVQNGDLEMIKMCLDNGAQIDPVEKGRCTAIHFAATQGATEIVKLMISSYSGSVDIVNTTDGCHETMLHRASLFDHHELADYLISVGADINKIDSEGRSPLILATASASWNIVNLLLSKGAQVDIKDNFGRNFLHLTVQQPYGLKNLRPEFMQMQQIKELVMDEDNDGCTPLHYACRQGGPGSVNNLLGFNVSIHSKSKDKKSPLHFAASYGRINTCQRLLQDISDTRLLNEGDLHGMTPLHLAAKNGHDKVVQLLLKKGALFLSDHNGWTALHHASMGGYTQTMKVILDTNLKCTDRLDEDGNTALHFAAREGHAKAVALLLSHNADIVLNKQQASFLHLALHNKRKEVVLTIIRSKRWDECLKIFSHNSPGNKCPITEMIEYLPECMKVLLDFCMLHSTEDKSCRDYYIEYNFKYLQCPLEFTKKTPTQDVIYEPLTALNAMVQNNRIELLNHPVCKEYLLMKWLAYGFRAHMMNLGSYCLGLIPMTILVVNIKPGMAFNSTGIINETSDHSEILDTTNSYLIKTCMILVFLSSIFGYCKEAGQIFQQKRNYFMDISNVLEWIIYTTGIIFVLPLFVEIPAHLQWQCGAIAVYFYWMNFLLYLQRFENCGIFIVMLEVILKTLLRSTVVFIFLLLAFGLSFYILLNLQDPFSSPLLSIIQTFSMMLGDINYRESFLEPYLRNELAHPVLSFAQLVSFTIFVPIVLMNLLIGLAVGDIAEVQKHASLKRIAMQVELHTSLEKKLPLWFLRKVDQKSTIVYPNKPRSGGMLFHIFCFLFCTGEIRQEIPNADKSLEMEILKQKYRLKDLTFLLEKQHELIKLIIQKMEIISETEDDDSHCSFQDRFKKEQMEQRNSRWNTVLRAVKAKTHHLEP

IC50 [nM]	Compound
6050	Fc1ccc(-c2cnc(CC(CN3CCCC(c4cccc(C(F)(F)F)c4)C3)C(F)(F)F)[nH]2)cc1 (stereo not drawn) [Example 7, 1-{3,3,3-Trifluoro-2-[5-(4-fluoro-phenyl)-1H-imidazol-2-ylmethyl]-propyl}-3-(3-trifluoromethyl-phenyl)-piperidine hydrochloride]
7270	FC(F)(F)c1cccc(C2CCCN(CC(Cc3ncc(-c4ccc(Cl)cc4)o3)C(F)(F)F)C2)c1 (stereo not drawn) [Example 13, 1-{2-[5-(4-Chloro-phenyl)-oxazol-2-ylmethyl]-3,3,3-trifluoro-propyl}-3-(3-trifluoromethyl-phenyl)-piperidine hydrochloride]
12300	FC(F)(F)c1cccc(C2CCCN(CC(Cc3nc4ccc(Cl)cc4o3)C(F)(F)F)C2)c1 (stereo not drawn) [Example 4, 6-Chloro-2-{3,3,3-trifluoro-2-[3-(3-trifluoromethyl-phenyl)-piperidin-1-ylmethyl]-propyl}-benzooxazole hydrochloride]
228	FC(F)(F)c1cccc(C2CN(CC(Cc3nnc(-c4ccc(Cl)cc4)o3)C(F)(F)F)CCO2)c1 (stereo not drawn) [Example 16, 4-{2-[5-(4-Chlorophenyl)-[1,3,4]oxadiazol-2-ylmethyl]-3,3,3-trifluoropropyl}-2-(3-trifluoromethyl-phenyl)-morpholine hydrochloride]
2400	Cc1ccc(-c2nnc(CC(CN3CCCC(c4cccc(C(F)(F)F)c4)C3)C(F)(F)F)o2)cn1 (stereo not drawn) [Example 10, 2-Methyl-5-(5-{3,3,3-trifluoro-2-[3-(3-trifluoromethyl-phenyl)-piperidin-1-ylmethyl]-propyl}-[1,3,4]oxadiazol-2-yl)-pyridine]
6720	FC(F)(F)c1cccc(C2CCCN(CC(Cc3nc4cc(Cl)ccc4[nH]3)C(F)(F)F)C2)c1 (stereo not drawn) [Example 1, 5-Chloro-2-{3,3,3-trifluoro-2-[3-(3-trifluoromethyl-phenyl)-piperidin-1-ylmethyl]-propyl}-1H-benzoimidazole hydrochloride]
2260	FC(F)(F)c1cccc(C2CCCN(CC(Cc3ncc(-c4cccc(Cl)c4)[nH]3)C(F)(F)F)C2)c1 (stereo not drawn) [Example 6, 1-{2-[5-(3-Chlorophenyl)-1H-imidazol-2-ylmethyl]-3,3,3-trifluoro-propyl}-3-(3-trifluoromethyl-phenyl)piperidine hydrochloride]
318	Fc1ccc(-c2nc(CC(CN3CCCC(c4cccc(C(F)(F)F)c4)C3)C(F)(F)F)no2)cc1 (stereo not drawn) [Example 15, 1-{3,3,3-Trifluoro-2-[5-(4-fluoro-phenyl)-[1,2,4]oxadiazol-3-ylmethyl]-propyl}-3-(3-trifluoromethyl-phenyl)-piperidine hydrochloride]
62.1	Fc1ccc(-c2nnc(CC(CN3CCOC(c4ccc(C(F)(F)F)cc4)C3)C(F)(F)F)o2)cc1 (stereo not drawn) [Example 17, 4-{3,3,3-Trifluoro-2-[5-(4-fluoro-phenyl)-[1,3,4]oxadiazol-2-ylmethyl]-propyl}-2-(4-trifluoromethyl-phenyl)-morpholine hydrochloride]
267	FC(F)(F)c1ccc(C2CN(CC(Cc3nnc(-c4ccc(Cl)cc4)o3)C(F)(F)F)CCO2)cc1 (stereo not drawn) [Example 18, 4-{2-[5-(4-Chloro-phenyl)-[1,3,4]oxadiazol-2-ylmethyl]-3,3,3-trifluoro-propyl}-2-(4-trifluoromethyl-phenyl)-morpholinehydrochloride]
30000	FC(F)(F)c1cccc(C2CCCN(CC(Cc3nnc(-c4ccc(Cl)cn4)o3)C(F)(F)F)C2)c1 (stereo not drawn) [Example 11, 5-Chloro-2-(5-{3,3,3-trifluoro-2-[3-(3-trifluoromethyl-phenyl)-piperidin-1-ylmethyl]-propyl}-[1,3,4]oxadiazol-2-yl)-pyridine hydrochloride]
11200	FC(F)(F)c1cccc(C2CCCN(CC(Cc3ncc(-c4ccccc4)[nH]3)C(F)(F)F)C2)c1 (stereo not drawn) [Example 5, 3-(3-Trifluoromethyl-phenyl)-1-[3,3,3-trifluoro-2-(5-phenyl-1H-imidazol-2-ylmethyl)-propyl]-piperidine hydrochloride]
112	Fc1ccc(-c2nnc(CC(CN3CCOC(c4cccc(C(F)(F)F)c4)C3)C(F)(F)F)o2)cc1 (stereo not drawn) [Example 12, 4-{3,3,3-Trifluoro-2-[5-(4-fluoro-phenyl)-[1,3,4]oxadiazol-2-ylmethyl]-propyl}-2-(3-trifluoromethyl-phenyl)-morpholine hydrochloride]
702	FC(F)(F)c1cccc(C2CCCN(CC(Cc3nnc(-c4ccc(Cl)cc4)o3)C(F)(F)F)C2)c1 (stereo not drawn) [Example 3, 1-{2-[5-(4-Chloro-phenyl)-[1,3,4]oxadiazol-2-ylmethyl]-3,3,3-trifluoro-propyl}-3-(3-trifluoromethyl-phenyl)-piperidine hydrochloride]
2660	FC(F)(F)c1cccc(C2CCCN(CC(Cc3nc(-c4ccc(Cl)cc4)no3)C(F)(F)F)C2)c1 (mixture of isomers) [Example 14, 1-{2-[3-(4-Chlorophenyl)-[1,2,4]oxadiazol-5-ylmethyl]-3,3,3-trifluoro-propyl}-3-(3-trifluoromethyl-phenyl)-piperidine hydrochloride]
116	Fc1ccc(-c2nnc(CC(CN3CCCC(c4cccc(C(F)(F)F)c4)C3)C(F)(F)F)o2)cc1 (stereo not drawn) [Example 8, 1-{3,3,3-Trifluoro-2-[5-(4-fluorophenyl)-[1,3,4]oxadiazol-2-ylmethyl]-propyl}-3-(3-trifluoromethyl-phenyl)-piperidine hydrochloride]
3700	FC(F)(F)c1cccc(C2CCCN(CC(Cc3ncc(-c4ccc(Cl)cc4)[nH]3)C(F)(F)F)C2)c1 (stereo not drawn) [Example 2, 1-{2-[5-(4-Chlorophenyl)-1H-imidazol-2-ylmethyl]-3,3,3-trifluoro-propyl}-3-(3-trifluoromethyl-phenyl)piperidine hydrochloride]
9110	FC(F)(F)c1cccc(C2CCCN(CC(Cc3nnc(-c4cccc(Cl)c4)o3)C(F)(F)F)C2)c1 (stereo not drawn) [Example 9, 1-{2-[5-(3-Chloro-phenyl)-[1,3,4]oxadiazol-2-ylmethyl]-3,3,3-trifluoro-propyl}-3-(3-trifluoromethyl-phenyl)-piperidine hydrochloride]
